Assay results as given in US8501734B2, “Medical intervention in haematological cancers” (Oncotyrol-Center for Personalized Cancer Medicine GmbH …, priority 2008, dated 2013).

Columns and labels:
[1] = test system: OPM2 cells; test: Annexin V/PI apoptosis assay (FACS), OPM2 cells; assay type: cell-based; design: apoptosis induction: unit not given here; conditions: OPM2 cells
Method: (§1) After treatment adherent cells were trypsinized (as described before), and resuspended in corresponding full medium. Suspension cells or trypsinized adherent cells, supernatant and washing solution (1×PBS from washing before trypsinization) were pooled and then spun down (300 g for 3 min) washed in 2 ml and resuspended in 1000 of annexin V binding buffer and mixed with 2 μg/ml annexin V-Allophycocyanin (APC) (BD-Pharmingen, San Diego, Calif., USA) and 50 ng/ml of propidium iodide (PI; Sigma Aldrich). At least 10.000 cells were measured per sample using a Becton Dickinson FACSCalibur flow Cytometer (San Jose, Calif., USA). Percentage of Annexin V negative and PI negative cells were depicted in the figures. For the analysis of the pro-apoptotic activity of Imiquimod® in primary MM cells and non-malignant BMMCs, 5×10^5 cells BMMCs cells were treated with or without 40 μg/ml Imiquimod® for the indicated time periods. Cells were then harvested and washed twice with PBS. Detection of apoptotic cells was performed using the annexin V/PI assay according to manufacturers' instruction. Briefly, BMMCs were stained with a mixture of annexin V/FITC (Alexis Coorp., Laeufelfingen, Switzerland), propidium iodide (Sigma), anti-CD38-PE and anti-CD45-PC5 for 15 min at room temperature and immediately analyzed by flow cytometry. The percentages of viable cells (i.e. cells negative for annexin V/FITC and PI) within the MM (CD38^posCD45^low/absent) and non-MM fraction (CD38^neg/CD45^pos) were determined by flow cytometry.
Cells were cultured as described before and, treated with 40 μg/ml Imiquimod® or Gardiquimod® for 24 h, and apoptosis was assayed by AnnexinV/PI staining and FACS analysis.
(§2) Adherent cells were grown in 24-well plates to confluence and treated with 40 μg/ml Imiquimod® for 24 h. Cells were then trypsinized, suspended in full medium, stained for AnnexinV/PI and apoptosis was measured as described before. Suspension cells (250.000) were treated with 40 μg/ml Imiquimod® for 24 h, stained for Annexin/PI and apoptosis was measured as described above (Annexin V/Propidium Iodide apoptosis Assay).
(§3) OPM-2 and U266 cells (2.5×10^5 in 500 μl) were treated with either Imiquimod® alone (10 μg/500 μl), various inhibitors/drugs alone or with the combination of Imiquimod® and inhibitors for 24 or 48 h. In the controls the solvent of the drug has been added in appropriate amounts. Cells were then AnnexinV/PI stained and apoptosis measured as described before.

[2] = test system: U266 cells; test: Annexin V/PI apoptosis assay (FACS), U266 cells; assay type: cell-based; design: apoptosis induction: unit not given here; further: key: 0 for no; + for low; ++: + indicates the range of apoptosis induction; +++: + indicates the range of apoptosis induction; ++++ for very strong apoptosis induction
Method: as §1, §2, §3

[3] = 24 h, Imi 20 μg/ml + drug 10 μM
[4] = 24 h, Imi 20 μg/ml + drug 50 μM
[5] = 48 h, Imi 20 μg/ml + drug 10 μM
[6] = 48 h, Imi 20 μg/ml + drug 50 μM
[7] = 24 h, Imi 20 μg/ml + drug 100 μM
[8] = 48 h, Imi 20 μg/ml + drug 100 μM
[9] = 24 h, Imi 20 μg/ml + drug 100 nM
[10] = 48 h, Imi 20 μg/ml + drug 100 nM
[11] = 24 h, Imi 20 μg/ml + drug 10 nM
[12] = 48 h, Imi 20 μg/ml + drug 10 nM
[13] = 24 h, Imi 20 μg/ml + drug 20 μM
[14] = 48 h, Imi 20 μg/ml + drug 20 μM

SMILES: CNC(=O)c1cc(Oc2ccc(NC(=O)Nc3ccc(Cl)c(C(F)(F)F)c3)cc2)ccn1 [Sorafenib]
- apoptosis induction ([1]; 24 h, Imi 20 μg/ml + drug 1 μM): +
- apoptosis induction [1, 3]: +
- apoptosis induction [1, 4]: ++++
- apoptosis induction ([1]; 24 h, drug alone 1 μM): 0
- apoptosis induction ([1]; 24 h, drug alone 10 μM): +
- apoptosis induction ([1]; 24 h, drug alone 50 μM): ++++
- cells in apoptosis ([1]; 48 h, 10 μM drug + Imiquimod 20 μg/ml): ~100%
- apoptosis induction ([1]; 48 h, Imi 20 μg/ml + drug 1 μM): ++
- apoptosis induction [1, 5]: ++++
- apoptosis induction [1, 6]: ++++
- apoptosis induction ([1]; 48 h, drug alone 1 μM): 0
- apoptosis induction ([1]; 48 h, drug alone 10 μM): ++
- apoptosis induction ([1]; 48 h, drug alone 50 μM): ++++
- cell killing ([1]; drug alone 50 μM): completely killed cells
- apoptosis induction ([2]; 24 h, Imi 20 μg/ml + drug 1 μM): 0
- apoptosis induction [2, 3]: +
- apoptosis induction [2, 4]: +++
- apoptosis induction ([2]; 24 h, drug alone 1 μM): 0
- apoptosis induction ([2]; 24 h, drug alone 10 μM): 0
- apoptosis induction ([2]; 24 h, drug alone 50 μM): +++
- apoptosis induction ([2]; 48 h, Imi 20 μg/ml + drug 1 μM): +
- apoptosis induction [2, 5]: ++
- apoptosis induction [2, 6]: +++
- apoptosis induction ([2]; 48 h, drug alone 1 μM): +
- apoptosis induction ([2]; 48 h, drug alone 10 μM): +
- apoptosis induction ([2]; 48 h, drug alone 50 μM): +++

SMILES: O=C1CCC(N2C(=O)c3ccccc3C2=O)C(=O)N1 (stereo not shown) [Thalidomide]
- apoptosis induction [1, 3]: +
- apoptosis induction [1, 7]: +
- apoptosis induction ([1]; 24 h, Imi 20 μg/ml + drug 1 mM): +
- apoptosis induction ([1]; 24 h, drug alone 10 μM): 0
- apoptosis induction ([1]; 24 h, drug alone 100 μM): 0
- apoptosis induction ([1]; 24 h, drug alone 1 mM): 0
- apoptosis induction [1, 5]: ++
- apoptosis induction [1, 8]: ++
- apoptosis induction ([1]; 48 h, Imi 20 μg/ml + drug 1 mM): +++
- apoptosis induction ([1]; 48 h, drug alone 10 μM): 0
- apoptosis induction ([1]; 48 h, drug alone 100 μM): 0
- apoptosis induction ([1]; 48 h, drug alone 1 mM): 0
- apoptosis induction [2, 3]: +
- apoptosis induction [2, 7]: +
- apoptosis induction ([2]; 24 h, Imi 20 μg/ml + drug 1 mM): +
- apoptosis induction ([2]; 24 h, drug alone 10 μM): 0
- apoptosis induction ([2]; 24 h, drug alone 100 μM): 0
- apoptosis induction ([2]; 24 h, drug alone 1 mM): +
- apoptosis induction [2, 5]: +
- apoptosis induction [2, 8]: +
- apoptosis induction ([2]; 48 h, Imi 20 μg/ml + drug 1 mM): +
- apoptosis induction ([2]; 48 h, drug alone 10 μM): 0
- apoptosis induction ([2]; 48 h, drug alone 100 μM): 0
- apoptosis induction ([2]; 48 h, drug alone 1 mM): +

SMILES: Cn1c2ccccc2c2c3c(c4c5ccccc5n(CCC#N)c4c21)CNC3=O [Gö 6976]
- apoptosis induction [1, 9]: +
- apoptosis induction ([1]; 24 h, Imi 20 μg/ml + drug 1 μM): ++
- apoptosis induction ([1]; 24 h, Imi 20 μg/ml + drug 5 μM): ++
- apoptosis induction ([1]; 24 h, drug alone 100 nM): 0
- apoptosis induction ([1]; 24 h, drug alone 1 μM): 0
- apoptosis induction ([1]; 24 h, drug alone 5 μM): 0
- apoptosis induction [1, 10]: ++
- apoptosis induction ([1]; 48 h, Imi 20 μg/ml + drug 1 μM): +++
- apoptosis induction ([1]; 48 h, Imi 20 μg/ml + drug 5 μM): +++
- apoptosis induction ([1]; 48 h, drug alone 100 nM): 0
- apoptosis induction ([1]; 48 h, drug alone 1 μM): 0
- apoptosis induction ([1]; 48 h, drug alone 5 μM): +
- apoptosis induction [2, 9]: +
- apoptosis induction ([2]; 24 h, Imi 20 μg/ml + drug 1 μM): ++
- apoptosis induction ([2]; 24 h, Imi 20 μg/ml + drug 5 μM): ++
- apoptosis induction ([2]; 24 h, drug alone 100 nM): 0
- apoptosis induction ([2]; 24 h, drug alone 1 μM): 0
- apoptosis induction ([2]; 24 h, drug alone 5 μM): 0
- apoptosis induction [2, 10]: ++
- apoptosis induction ([2]; 48 h, Imi 20 μg/ml + drug 1 μM): +++
- apoptosis induction ([2]; 48 h, Imi 20 μg/ml + drug 5 μM): +++
- apoptosis induction ([2]; 48 h, drug alone 100 nM): 0
- apoptosis induction ([2]; 48 h, drug alone 1 μM): 0
- apoptosis induction ([2]; 48 h, drug alone 5 μM): +

SMILES: C[C@@H]1C[C@H]2[C@@H]3CCC4=CC(=O)C=C[C@]4(C)[C@@]3(F)[C@@H](O)C[C@]2(C)[C@@]1(O)C(=O)CO [Dex., Dexamethasone]
- apoptosis induction [1, 11]: +
- apoptosis induction [1, 9]: +
- apoptosis induction ([1]; 24 h, Imi 20 μg/ml + drug 1 μM): +
- apoptosis induction ([1]; 24 h, drug alone 10 nM): 0
- apoptosis induction ([1]; 24 h, drug alone 100 nM): 0
- apoptosis induction ([1]; 24 h, drug alone 1 μM): 0
- apoptosis induction [1, 12]: ++
- apoptosis induction [1, 10]: +++
- apoptosis induction ([1]; 48 h, Imi 20 μg/ml + drug 1 μM): +++
- apoptosis induction ([1]; 48 h, drug alone 10 nM): 0
- apoptosis induction ([1]; 48 h, drug alone 100 nM): 0
- apoptosis induction ([1]; 48 h, drug alone 1 μM): 0
- apoptosis induction [2, 11]: +
- apoptosis induction [2, 9]: +
- apoptosis induction ([2]; 24 h, Imi 20 μg/ml + drug 1 μM): +
- apoptosis induction ([2]; 24 h, drug alone 10 nM): 0
- apoptosis induction ([2]; 24 h, drug alone 100 nM): 0
- apoptosis induction ([2]; 24 h, drug alone 1 μM): 0
- apoptosis induction [2, 12]: +
- apoptosis induction [2, 10]: +
- apoptosis induction ([2]; 48 h, Imi 20 μg/ml + drug 1 μM): +
- apoptosis induction ([2]; 48 h, drug alone 10 nM): 0
- apoptosis induction ([2]; 48 h, drug alone 100 nM): 0
- apoptosis induction ([2]; 48 h, drug alone 1 μM): 0

SMILES: N[C@@H](Cc1ccc(N(CCCl)CCCl)cc1)C(=O)O [Melphalan]
- apoptosis induction [1, 3]: +
- apoptosis induction [1, 13]: ++
- apoptosis induction [1, 4]: ++
- apoptosis induction ([1]; 24 h, drug alone 10 μM): +
- apoptosis induction ([1]; 24 h, drug alone 20 μM): +
- apoptosis induction ([1]; 24 h, drug alone 50 μM): ++
- apoptosis induction [1, 5]: ++
- apoptosis induction [1, 14]: ++++
- apoptosis induction [1, 6]: ++++
- apoptosis induction ([1]; 48 h, drug 20 μM and 50 μM + Imiquimod 20 μg/ml): nearly complete apoptosis induction in all cells
- apoptosis induction ([1]; 48 h, drug alone 10 μM): +
- apoptosis induction ([1]; 48 h, drug alone 20 μM): ++
- apoptosis induction ([1]; 48 h, drug alone 50 μM): +++
- apoptosis induction [2, 3]: +
- apoptosis induction [2, 13]: ++
- apoptosis induction [2, 4]: +++
- apoptosis induction ([2]; 24 h, drug alone 10 μM): +
- apoptosis induction ([2]; 24 h, drug alone 20 μM): +
- apoptosis induction ([2]; 24 h, drug alone 50 μM): ++
- apoptosis induction [2, 5]: ++
- apoptosis induction [2, 14]: ++
- apoptosis induction [2, 6]: +++
- apoptosis induction ([2]; 48 h, drug alone 10 μM): +
- apoptosis induction ([2]; 48 h, drug alone 20 μM): +
- apoptosis induction ([2]; 48 h, drug alone 50 μM): +++

SMILES: CCNCc1nc2c(N)nc3ccccc3c2n1CC(C)(C)O [Gardiquimod, 1-(4-Amino-2-ethylaminomethylimidazo[4,5-c]quinolin-1-yl)-2-methylpropan-2-ol]
- apoptosis induction compared with Imiquimod ([1]; 40 μg/ml, 24 h): comparable, though slightly lower extend
